In article PMC11845477, “Exploring the principles behind antibiotics with limited resistance” (Nature Communications, 2025):
Where a SMILES comes first, the peptide text is derived from it. Bridges are numbered along the chain shown (N, C = ends). [ ]: non-standard residue; d: D form. The star is where a group is joined. X1 = NC[C@@H](CC(=O)*)c1cccc(Cl)c1; Dab = NCC[C@H](N)C(=O)O; Dap = NC[C@H](N)C(=O)O

Columns and labels:
[1] = tested on: polymyxin B-resistant lines of A. baumannii (AB-SEN); assay: Cross-resistance of polymyxin B resistant evolved lines, relative MIC; assay type: cell-based, Acinetobacter baumannii
From the text: To further investigate potential overlaps in resistance mechanisms, we examined the extent of cross-resistance between polymyxin B and other antibiotics that target the bacterial membrane.
Fig. 7 Cross-resistance of polymyxin B resistant lines to ST and DT permeabilizer antibiotics. […] 3 independently evolved lines from each investigated species were studied, including E. coli (EC), K. pneumoniae (KP), A. baumannii (AB), and P. aeruginosa (PA). Gray color of the main heatmap indicates combinations not tested due to intrinsic resistance of ancestor strain. The additional heatmap to the right depicts genes mutated in each polymyxin B-adapted line and their involvement in specific cellular processes based on KEGG (Kyoto Encyclopedia of Genes and Genomes) and COG (Clusters of Orthologous Genes) databases. The distances between antibiotics were computed using the Euclidean distance method based on the log-transformed MIC values. The clustering was performed using the complete linkage method. […] For detailed information on antibiotic and bacterial strain abbreviations, see Supplementary Data 1. Source data are provided as a Source Data file.
(§1) A robotic liquid handling system was used to automatically prepare a 11 to 16-step serial dilution in 384-well microtiter plates (Greiner). A final concentration of 5 × 10^5 bacterial cells per mL were inoculated into each well containing 60 µL MHB medium. Bacterial cultures were incubated at 37 °C with continuous shaking (Infors shaker, 900 rpm with 3 mm throw) for 18 hours (2 replicates from each). Cell growth was monitored by measuring the optical density (OD600 values, using Biotek Synergy microplate reader). MIC was defined as the antibiotic concentration of complete growth inhibition (i.e., OD600 < 0.05). Relative MIC was calculated as follows:1 relativeMIC=MICevolved/MICancestor […]
Supplementary Figure 6. Susceptibility of Polymyxin B resistant lines to other ST and DT […]
dividing the MIC of the evolved line by that of the corresponding ancestor) of 12 polymyxin B resistant lines to ST and DT permeabilizer antibiotics used in this study. Each data point represents a distinct adaptive laboratory evolved polymyxin B resistant line. Boxplots show the median, first and third quartiles, with whiskers showing the 5th and 95th percentiles. P values were calculated using Dunn's post-hoc test with Benjamini-Hochberg correction (NS indicates p > 0.05, ** / **** indicates p < 0.01 / 0.0001, respectively). The resistance level of polymyxin B resistant lines to polymyxin B (PMB), […]
(§2) For detailed information on antibiotic and bacterial strain abbreviations, see Supplementary Table 1. Source data are provided as a Source […]
(§3) (1 picture or pasted object on this page, not shown here)

[2] = tested on: polymyxin B-resistant lines of E. coli (EC-SEN); assay: as above; assay type: cell-based, Escherichia coli
Procedure: 3 independently evolved lines from each investigated species were studied, including E. coli (EC), K. pneumoniae (KP), A. baumannii (AB), and P. aeruginosa (PA). […] The distances between antibiotics were computed using the Euclidean distance method based on the log-transformed MIC values. The clustering was performed using the complete linkage method. […] For detailed information on antibiotic and bacterial strain abbreviations, see Supplementary Data 1. Source data are provided as a Source Data file.
as §1
Each data point represents a distinct
Boxplots show the median, first and third quartiles, with whiskers showing the 5th and 95th percentiles. P values were calculated using Dunn's post-hoc test with Benjamini-Hochberg correction (NS indicates p > 0.05, ** / **** indicates p < 0.01 […]
as §2, §3

[3] = tested on: P. aeruginosa ATCC BAA-3107 (SEN) and P. aeruginosa LESB58 (MDR); assay: Adaptive laboratory evolution (ALE), relative MIC of evolved lines; assay type: cell-based, Pseudomonas aeruginosa
Summary of the method: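 Ten parallel populations per antibiotic–ancestor pair were evolved in MHB at 37 °C, starting near 50% growth-inhibiting drug. Every 72 h they were passaged into 0.5–2.5× increasing concentrations, keeping the highest-drug well with OD600 > 0.2.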

[4] = AB-SEN, polymyxin B-resistant evolved line 2, MIC evolved/MIC ancestor
[5] = AB-SEN, polymyxin B-resistant evolved line 6, MIC evolved/MIC ancestor
[6] = AB-SEN, polymyxin B-resistant evolved line 9, MIC evolved/MIC ancestor
[7] = polymyxin B-resistant evolved line 2 of AB-SEN, MIC relative to ancestor
[8] = polymyxin B-resistant evolved line 6 of AB-SEN, MIC relative to ancestor
[9] = polymyxin B-resistant evolved line 9 of AB-SEN, MIC relative to ancestor
[10] = EC-SEN, polymyxin B-resistant evolved line 6, MIC evolved/MIC ancestor
[11] = EC-SEN, polymyxin B-resistant evolved line 10, MIC evolved/MIC ancestor
[12] = polymyxin B-resistant evolved line 6 of EC-SEN, MIC relative to ancestor
[13] = polymyxin B-resistant evolved line 10 of EC-SEN, MIC relative to ancestor

Compound: CC(C)C[C@@H]1NC(=O)[C@@H](Cc2ccccc2)NC(=O)[C@H](CCN)NC(=O)[C@@H](NC(=O)[C@H](CN)NC(=O)[C@@H](NC(=O)C[C@H](CN)c2cccc(Cl)c2)[C@@H](C)O)CCNC(=O)[C@H]([C@@H](C)O)NC(=O)[C@H](CCN)NC(=O)[C@H](CCN)NC1=O [SPR206] (X1-T[Dap][Dab][Dab][dF]L[Dab][Dab]T; lactam 3-C (inferred); N-terminus assumed)
- Relative MIC [1, 4]: 128
- Relative MIC [1, 5]: 2048
- Relative MIC [1, 6]: 128
- Relative MIC [1, 7]: 128
- Relative MIC [1, 8]: 2048
- Relative MIC [1, 9]: 128
- Relative MIC ([2]; EC-SEN, polymyxin B-resistant evolved line 4, MIC evolved/MIC ancestor): 32
- Relative MIC [2, 10]: 64
- Relative MIC [2, 11]: 64
- Relative MIC ([2]; polymyxin B-resistant evolved line 4 of EC-SEN, MIC relative to ancestor): 32
- Relative MIC [2, 12]: 64
- Relative MIC [2, 13]: 64
- Relative MIC ([3]; ALE, P. aeruginosa ATCC BAA 3107 (PA-SEN), evolved line 1): 16
- Relative MIC ([3]; ALE, P. aeruginosa ATCC BAA 3107 (PA-SEN), evolved line 2): 32
- Relative MIC ([3]; ALE, P. aeruginosa ATCC BAA 3107 (PA-SEN), evolved line 4): 16
- Relative MIC ([3]; ALE, P. aeruginosa ATCC BAA 3107 (PA-SEN), evolved line 5): 16
- Relative MIC ([3]; ALE, P. aeruginosa ATCC BAA 3107 (PA-SEN), evolved line 8): 8
- Relative MIC ([3]; ALE, P. aeruginosa ATCC BAA 3107 (PA-SEN), evolved line 9): 32
- Relative MIC ([3]; ALE, P. aeruginosa ATCC BAA 3107 (PA-SEN), evolved line 10): 2
- Relative MIC ([3]; PA-MDR (LESB 58), evolved line 1, evolved vs ancestor): 16
- Relative MIC ([3]; PA-MDR (LESB 58), evolved line 2, evolved vs ancestor): 16
- Relative MIC ([3]; PA-MDR (LESB 58), evolved line 3, evolved vs ancestor): 16
- Relative MIC ([3]; PA-MDR (LESB 58), evolved line 4, evolved vs ancestor): 8
- Relative MIC ([3]; PA-MDR (LESB 58), evolved line 5, evolved vs ancestor): 16
- Relative MIC ([3]; PA-MDR (LESB 58), evolved line 6, evolved vs ancestor): 32
- Relative MIC ([3]; PA-MDR (LESB 58), evolved line 7, evolved vs ancestor): 16
- Relative MIC ([3]; PA-MDR (LESB 58), evolved line 8, evolved vs ancestor): 4
- Relative MIC ([3]; PA-MDR (LESB 58), evolved line 9, evolved vs ancestor): 16
- Relative MIC ([3]; PA-MDR (LESB 58), evolved line 10, evolved vs ancestor): 32
- MIC of evolved line ([3]; PA-MDR (LESB 58), evolved line 4): 32 µg/mL
- MIC of evolved line ([3]; PA-MDR (LESB 58), evolved line 5): 64 µg/mL
- MIC of evolved line ([3]; PA-MDR (LESB 58), evolved line 6): 128 µg/mL
- MIC of evolved line ([3]; PA-MDR (LESB 58), evolved line 7): 64 µg/mL
- MIC of evolved line ([3]; PA-MDR (LESB 58), evolved line 8): 16 µg/mL
- MIC of evolved line ([3]; PA-MDR (LESB 58), evolved line 9): 64 µg/mL
- MIC of evolved line ([3]; PA-MDR (LESB 58), evolved line 10): 128 µg/mL
- Relative MIC (log10) ([3]; PA-MDR (Pseudomonas aeruginosa LESB 58), evolved line 1): 1.204 log10
- Relative MIC (log10) ([3]; PA-MDR (Pseudomonas aeruginosa LESB 58), evolved line 6): 1.505 log10
- MIC of evolved line ([3]; PA-MDR LESB 58, evolved line 1): 64 µg/mL
- MIC of evolved line ([3]; PA-MDR LESB 58, evolved line 2): 64 µg/mL
- MIC of evolved line ([3]; PA-MDR LESB 58, evolved line 3): 64 µg/mL
- Relative MIC (log10) ([3]; PA-MDR, Pseudomonas aeruginosa LESB 58, evolved line 9): 1.204 log10
- Relative MIC (log10) ([3]; PA-MDR, Pseudomonas aeruginosa LESB 58, evolved line 10): 1.505 log10
- Relative MIC (log10) ([3]; PA-MDR, Pseudomonas aeruginosa LESB 58, evolved line 3): 1.204 log10
- Relative MIC ([3]; PA-SEN (ATCC BAA 3107), evolved line 1, evolved vs ancestor): 16
- Relative MIC ([3]; PA-SEN (ATCC BAA 3107), evolved line 2, evolved vs ancestor): 32
- Relative MIC ([3]; PA-SEN (ATCC BAA 3107), evolved line 4, evolved vs ancestor): 16
- Relative MIC ([3]; PA-SEN (ATCC BAA 3107), evolved line 5, evolved vs ancestor): 16
- Relative MIC ([3]; PA-SEN (ATCC BAA 3107), evolved line 8, evolved vs ancestor): 8
- Relative MIC ([3]; PA-SEN (ATCC BAA 3107), evolved line 9, evolved vs ancestor): 32
- Relative MIC ([3]; PA-SEN (ATCC BAA 3107), evolved line 10, evolved vs ancestor): 2
- MIC of evolved line ([3]; PA-SEN (ATCC BAA 3107), evolved line 2): 32 µg/mL
- MIC of evolved line ([3]; PA-SEN (ATCC BAA 3107), evolved line 4): 16 µg/mL
- MIC of evolved line ([3]; PA-SEN (ATCC BAA 3107), evolved line 5): 16 µg/mL
- MIC of evolved line ([3]; PA-SEN (ATCC BAA 3107), evolved line 8): 8 µg/mL
- MIC of evolved line ([3]; PA-SEN (ATCC BAA 3107), evolved line 9): 32 µg/mL
- MIC of evolved line ([3]; PA-SEN (ATCC BAA 3107), evolved line 10): 2 µg/mL
- MIC of evolved line ([3]; PA-SEN ATCC BAA 3107, evolved line 1): 16 µg/mL
- Relative MIC (log10) ([3]; PA-SEN, Pseudomonas aeruginosa ATCC BAA 3107, evolved line 1): 1.204 log10
- Relative MIC (log10) ([3]; PA-SEN, Pseudomonas aeruginosa ATCC BAA 3107, evolved line 2): 1.505 log10
- Relative MIC (log10) ([3]; PA-SEN, Pseudomonas aeruginosa ATCC BAA 3107, evolved line 4): 1.204 log10
- Relative MIC (log10) ([3]; PA-SEN, Pseudomonas aeruginosa ATCC BAA 3107, evolved line 5): 1.204 log10
- Relative MIC (log10) ([3]; PA-SEN, Pseudomonas aeruginosa ATCC BAA 3107, evolved line 9): 1.505 log10
- Relative MIC ([3]; Pseudomonas aeruginosa ATCC BAA 3107 (PA-SEN), evolved line 1): 16
- Relative MIC ([3]; Pseudomonas aeruginosa ATCC BAA 3107 (PA-SEN), evolved line 2): 32
- Relative MIC ([3]; Pseudomonas aeruginosa ATCC BAA 3107 (PA-SEN), evolved line 4): 16
- Relative MIC ([3]; Pseudomonas aeruginosa ATCC BAA 3107 (PA-SEN), evolved line 5): 16
- Relative MIC ([3]; Pseudomonas aeruginosa ATCC BAA 3107 (PA-SEN), evolved line 8): 8
- Relative MIC ([3]; Pseudomonas aeruginosa ATCC BAA 3107 (PA-SEN), evolved line 9): 32
- Relative MIC ([3]; Pseudomonas aeruginosa ATCC BAA 3107 (PA-SEN), evolved line 10): 2
- Relative MIC ([3]; Pseudomonas aeruginosa LESB 58 (PA-MDR), evolved line 1): 16
- Relative MIC ([3]; Pseudomonas aeruginosa LESB 58 (PA-MDR), evolved line 2): 16
- Relative MIC ([3]; Pseudomonas aeruginosa LESB 58 (PA-MDR), evolved line 3): 16
- Relative MIC ([3]; Pseudomonas aeruginosa LESB 58 (PA-MDR), evolved line 4): 8
- Relative MIC ([3]; Pseudomonas aeruginosa LESB 58 (PA-MDR), evolved line 5): 16
- Relative MIC ([3]; Pseudomonas aeruginosa LESB 58 (PA-MDR), evolved line 6): 32
- Relative MIC ([3]; Pseudomonas aeruginosa LESB 58 (PA-MDR), evolved line 7): 16
- Relative MIC ([3]; Pseudomonas aeruginosa LESB 58 (PA-MDR), evolved line 8): 4
- Relative MIC ([3]; Pseudomonas aeruginosa LESB 58 (PA-MDR), evolved line 9): 16
- Relative MIC ([3]; Pseudomonas aeruginosa LESB 58 (PA-MDR), evolved line 10): 32

Compound: colistin
- Relative MIC [1, 4]: 32
- Relative MIC [1, 5]: 512
- Relative MIC [1, 6]: 32
- Relative MIC [1, 7]: 32
- Relative MIC [1, 8]: 512
- Relative MIC [1, 9]: 32
- Relative MIC [2, 10]: 32
- Relative MIC [2, 11]: 32
- Relative MIC [2, 12]: 32
- Relative MIC [2, 13]: 32
